From US8921405B2, “Compounds” (Orexo AB, priority 2009, dated 2014)
Read-outs that look alike come from different tables or passages of the source.

Molecular target: T1, recombinant human mPGES-1 (Homo sapiens, UniProt O14684)
T1 construct: made in house; host or cells: Rosetta E. coli (membrane/microsome fraction)
T1 sequence (O14684 1-152): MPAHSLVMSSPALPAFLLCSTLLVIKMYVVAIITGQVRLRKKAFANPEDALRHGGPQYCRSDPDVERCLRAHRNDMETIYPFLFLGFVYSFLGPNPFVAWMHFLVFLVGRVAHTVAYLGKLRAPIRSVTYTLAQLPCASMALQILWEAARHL
Assay: mPGES-1 HTRF assay (inhibition of PGE2 formation from PGH2)
Assay type: biochemical
Experimental: The basis of the assay used is to measure the inhibition of microsomal prostaglandin E2 synthase-1 (mPGES-1) dependent prostaglandin (PG) E2 formation from PGH2 by different compounds. Thus, the formation of PGE2 is used as signal and a lowering of this signal can be interpreted as inhibition of mPGES-1. […] Microsomes from Rosetta E. coli bacteria expressing recombinant human mPGES-1 can be derived as described below: Inoculate 5 ml LB with Amp and Chloro with bacteria from freeze culture. Incubate over night at 37° C. with 200 rpm. Thereafter, inoculate 500-800 ml LB containing Amp and Chloro with the 5 ml on culture and grow to OD640 of 0.6-0.8. Chill the culture to +4° C. before induction. Induce the culture with IPTG at a final concentration of 400 μM. Express the protein at room temp 18-23° C. with 200 rpm shaking over night. The following steps can be performed on the following day: • 1. Spin down the cells in 250 ml centrifuge flasks for 15 min at 7000 rpm • 2. Dissolve the pellet from 250 ml culture in 12.5 ml homogenization buffer • 3. Disintegrate the cells by sonication, 4×10 seconds at 35% amplitude • 4. Add 2.5 ml MgCl2 (100 mM) and DNase 12.5 μl (0.8 mg/ml) and incubate on ice for 30 min • 5. Spin down the bacteria debris and save the supernatant, 7000 rpm for 15 min • 6. Isolate the protein containing membranes in the supernatant by ultracentrifugation 45000×g for 1 hour. • 7. Discard the supernatant and dissolve the pellet in 20 mM KPi buffer and aliquot the enzyme and store aliquots at −80° C. Before each experiment is performed an aliquot of the enzyme is thawed and it can then be dissolved in 0.1 M KPi pH 7.4 buffer containing 2.5 mM GSH. 50 μl of this enzyme solution is subsequently dispensed in a 384-well plate at room temperature. 0.5 μl of the inhibitor dissolved in DMSO is thereafter added to each well and incubated for 25 minutes at room temperature. Subsequently, 2 μl of PGH2 dissolved in an appropriate solvent is added to each well and after one minute at room temperature, the acidified stop solution containing FeCl2 is added. 4 μl of the total volume is transferred to a separate plate and diluted 750-fold in two separate steps before quantification of PGE2. In order to quantitate the amount of PGE2 that has been formed, a homogenous time resolved fluorescent (HTRF) detection of PGE2 can be performed by the use of a commercially available kit from CisBio essentially according to the manufacturer's protocol. […] The sealing film is thereafter removed from the NC wells. • 5 μl Eu3+-cryptate labeled anti-PGE2 can now be added to rows 1 to 24 by using a Multidrop. • The plate can now be covered with sealing film. • The plate can now be centrifuge at 1200 rpm for 1 minute and place at 4° C. overnight. After the over night incubation the fluorescence is measured by the use of an appropriate microplate reader. […] The extent of the specific HTRF is measured as a ratio of the emission intensity at 665 nm vs. that at 620 nm. A standard curve using synthetic PGE2 is used to quantify the amount of PGE2 in unknown samples. The degree of inhibition can be calculated as percent inhibition by dividing the amount of PGE2 formed in unknown samples by the amount of PGE2 formed in control samples.

[1] = compound concentration of 10 μM, HTRF assay, read-out: % inhibition

Compound | inhibition at 10 µM [1] [%] | further results
CC(=O)NC(C)c1ccc(Cl)c(Nc2nc3cc(C(=O)Nc4ccc(Br)cc4)ccc3n2C)c1 (stereo not drawn) [Example 1, 2-[5-(1-Acetamidoethyl)-2-chlorophenylamino]-N-(4-bromophenyl)-1-methylbenzimidazole-5-carboxamide] | – | inhibition at 10 µM: 100%
Cn1c(Nc2cc(CNC(=O)C3(C)CCCCC3)ccc2Cl)nc2cc(C(=O)NC3CCCC3)c(Cl)cc21 [Example 3, 6-Chloro-2-{2-chloro-5-[(1-methylcyclohexylamido)methyl]phenylamino}-N-cyclopentyl-1-methylbenzimidazole-5-carboxamide] | 100 | –
CC1(C(=O)NCc2ccc(Cl)c(Nc3nc4cc(C(=O)N5CCCC5)ccc4[nH]3)c2)CCCCC1 [Example 4, N-{4-Chloro-3-[5-(1-pyrrolidinylcarbonyl)-2-benzimidazolylamino]benzyl}-1-methylcyclohexylamide] | 83 | –
Cn1c(Nc2cc(CNC(=O)C3(C)CCCCC3)ccc2Cl)nc2cc(Cl)c(NC(=O)C3CCCC3)cc21 [Example 6, N-{4-chloro-3-[5-chloro-6-(cyclopentylamido)-1-methyl-2-benzimidazolylamino]benzyl}-1-methylcyclohexylamide] | – | % inhibition (compound concentration of 10 μM, HTRF assay): 100%
Cn1c(Nc2cc(CNS(=O)(=O)c3cccs3)ccc2Cl)nc2cc(C(=O)NCC3CCCCC3)ccc21 [Example 9, 2-{2-Chloro-5-[(2-thienylsulfonamido)methyl]phenylamino}-N-cyclohexylmethyl-1-methylbenzimidazole-5-carboxamide] | 98 | –
Cn1c(Nc2cc(CNC(=O)C3(C(F)(F)F)CC3)ccc2Cl)nc2cc(C(=O)NCC3CC3)ccc21 [Example 11, 2-{2-chloro-5-[(1-trifluoromethylcyclopropylamido)methyl]phenylamino}-N-cyclopropylmethyl-1-methylbenzimidazole-5-carboxamide] | 100 | –
CC1(C(=O)NCc2ccc(Cl)c(Nc3nc4ccc(C(=O)NC5CCCC5)cc4[nH]3)c2)CCCCC1 [Example 13, 2-{2-Chloro-5-[(1-methylcyclohexylamido)methyl]phenylamino}-N-cyclopentylbenzimidazole-5-carboxamide] | 100 | –
Cn1c(Nc2cc(CNC(=O)C3(C)CCCCC3)ccc2Cl)nc2cc(C(=O)NCCOC(C)(C)C)ccc21 [Example 15, N-(2-tert-Butoxyethyl)-2-{2-chloro-5-[(1-methylcyclohexylamido)methyl]phenylamino}-1-methylbenzimidazole-5-carboxamide] | 99 | –
CC1(C(=O)NCc2ccc(Cl)c(Nc3nc4cc(C(=O)NC5CCCC5)c(Cl)cc4n3C3CCCC3)c2)CCCCC1 [Example 23, 6-Chloro-2-{2-chloro-5-[(1-methylcyclohexylamido)methyl]phenylamino}-N,1-dicyclopentylbenzimidazole-5-carboxamide] | 100 | –
CC1(C(=O)NCc2ccc(Cl)c(Nc3nc4cc(Cl)c(C(=O)NC5CCCC5)cc4[nH]3)c2)CCCCC1 [Example 24, 6-Chloro-2-{2-chloro-5-[(1-methylcyclohexylamido)methyl]phenylamino}-N-cyclopentylbenzimidazole-5-carboxamide] | 97 | –

Further lines, with some results ahead:

inhibition at 10 µM [1] [%] | Compound | further results
100 | Cn1c(Nc2cc(CNC(=O)C3(C)CCCCC3)ccc2Cl)nc2cc(Cl)c(NC(=O)OC(C)(C)C)cc21 [Example 5, tert-Butyl 5-chloro-2-{2-chloro-5-[(1-methylcyclohexylamido)methyl]phenylamino}-1-methyl-6-benzimidazolylcarbamate] | –
98 | Cn1c(Nc2cc(CNC(=O)C3(C)CCCCC3)ccc2Cl)nc2cc(S(=O)(=O)NC3CCCC3)ccc21 [Example 7, N-{4-Chloro-3-[5-(N-cyclopentylsulfamoyl)-1-methyl-2-benzimidazolylamino]benzyl}-1-methylcyclohexylamide] | –
98 | Cn1c(Nc2cc(CNC(=O)C3(C)CC3)ccc2Cl)nc2cc(C(=O)NCC3CCCCC3)ccc21 [Example 8, 2-{2-Chloro-5-[(1-methylcyclopropylamido)methyl]phenylamino}-N-cyclohexylmethyl-1-methylbenzimidazole-5-carboxamide] | –
100 | Cn1c(Nc2cc(CNC(=O)C3(C)CC3)ccc2Cl)nc2cc(C(=O)Nc3ccc(Br)cc3)ccc21 [Example 10] | –
100 | Cn1c(Nc2cc(CNC(=O)C3(C)CCCCC3)ccc2Cl)nc2cc(C(=O)N3CCCC3)ccc21 [Example 12, N-{4-Chloro-3-[1-methyl-5-(1-pyrrolidinylcarbonyl)-2-benzimidazolylamino]benzyl}-1-methylcyclohexylamide] | –
100 | Cn1c(Nc2cc(CNC(=O)C3(C)CCCCC3)ccc2Cl)nc2cc(C(=O)NC3CCCC3)ccc21 [Example 14, 2-{2-Chloro-5-[(1-methylcyclohexylamido)methyl]phenylamino}-N-cyclopentyl-1-methylbenzimidazole-5-carboxamide] | –
80 | Cn1c(Nc2cc(CNC(=O)C3(C)CCCCC3)ccc2Cl)nc2cc(C(=O)NCC3CCCCC3)ccc21 [Example 16, 2-{2-Chloro-5-[(1-methylcyclohexylamido)methyl]phenylamino}-N-cyclohexylmethyl-1-methylbenzimidazole-5-carboxamide] | –
95 | Cn1c(Nc2cc(CNC(=O)C3(C)CCCCC3)ccc2Cl)nc2cc(C(=O)NCCN3CCCCC3)ccc21 [Example 17, 2-{2-Chloro-5-[(1-methylcyclohexylamido)methyl]phenylamino]-1-methyl-N-[2-(1-piperidinyl)ethyl]benzimidazole-5-carboxamide] | –
98 | Cn1c(Nc2cc(CNC(=O)C3(C)CCCCC3)ccc2Cl)nc2cc(C(=O)NCC3CCCO3)ccc21 (stereo not drawn) [Example 18, 2-{2-Chloro-5-[(1-methylcyclohexylamido)methyl]phenylamino]-1-methyl-N-[(2-tetrahydrofuryl)methyl]benzimidazole-5-carboxamide] | –
98 | CN1CCCCC1CNC(=O)c1ccc2c(c1)nc(Nc1cc(CNC(=O)C3(C)CCCCC3)ccc1Cl)n2C (stereo not drawn) [Example 19, 2-{2-Chloro-5-[(1-methylcyclohexylamido)methyl]phenylamino]-1-methyl-N-[(1-methyl-2-piperidinyl)methyl]benzimidazole-5-carboxamide] | –
100 | Cn1c(Nc2cc(CNC(=O)C3(C)CCCCC3)ccc2Cl)nc2cc(C(=O)NCc3ccccn3)ccc21 [Example 20, 2-{2-Chloro-5-[(1-methylcyclohexylamido)methyl]phenylamino}-1-methyl-N-(2-pyridinylmethyl)benzimidazole-5-carboxamide] | –
100 | Cn1c(Nc2cc(CNC(=O)C3(C)CCCCC3)ccc2Cl)nc2cc(C(=O)Nc3ccc(Br)cc3)ccc21 [Example 21, N-(4-Bromophenyl)-2-{2-chloro-5-[(1-methylcyclohexylamido)methyl]-phenylamino}-1-methylbenzimidazole-5-carboxamide] | –
98 | CN(C(=O)c1ccc2c(c1)nc(Nc1cc(CNC(=O)C3(C)CCCCC3)ccc1Cl)n2C)C1CCCC1 [Example 22, 2-{2-Chloro-5-[(1-methylcyclohexylamido)methyl]phenylamino}-N-cyclopentyl-N,1-dimethylbenzimidazole-5-carboxamide] | –
99 | Cn1c(Nc2cc(CNC(=O)C3(C)CCCCC3)ccc2Cl)nc2cc(Cl)c(NC(=O)c3ccc(Br)cc3)cc21 [Example 25, 4-Bromo-N-(5-chloro-2-{2-chloro-5-[(1-methylcyclohexylamido)methyl]phenylamino}-1-methyl-6-benzimidazolyl)benzamide] | –
